# Reference: the supplement of paper PMC10307832
# Legend:
# Test in all cases: relative viability (nuclei count vs DMSO), 5 days (fraction); higher = more cells survive
# IPA-3 + Linsitinib = compound: C1=CC=C2C(=C1)C=CC(=C2SSC3=C(C=CC4=CC=CC=C43)O)O [IPA-3] + C[C@]1(O)C[C@@H](c2nc(-c3ccc4ccc(-c5ccccc5)nc4c3)c3c(N)nccn32)C1 [Linsitinib] (partner 1 µM)
# Summary of the method: (§1)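 Each reported value is a median over duplicate plates. It expresses relative viability: treated-well nuclei count divided by vehicle-well nuclei count. Lung cancer cell lines in 1536-well plates were dosed by pin tool a day after seeding, alone with one drug or with a fixed anchor-drug dose plus five library-drug doses (not always all listed) in √10 steps, and nuclei were counted after 5 days.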
# Doramapimod + Navitoclax = compound: Cc1ccc(-n2nc(C(C)(C)C)cc2NC(=O)Nc2ccc(OCCN3CCOCC3)c3ccccc23)cc1 [Doramapimod] + CC1(C)CCC(c2ccc(Cl)cc2)=C(CN2CCN(c3ccc(C(=O)NS(=O)(=O)c4ccc(N[C@H](CCN5CCOCC5)CSc5ccccc5)c(S(=O)(=O)C(F)(F)F)c4)cc3)CC2)C1 [Navitoclax] (partner 0.5 µM)
# Summary of the method: as §1
# Doramapimod + OSI-027 = compound: Cc1ccc(-n2nc(C(C)(C)C)cc2NC(=O)Nc2ccc(OCCN3CCOCC3)c3ccccc23)cc1 [Doramapimod] + COc1cccc2cc(-c3nc([C@H]4CC[C@H](C(=O)O)CC4)n4ncnc(N)c34)[nH]c12 [OSI-027] (partner 0.5 µM)
# Summary of the method: as §1
# Doramapimod + Crizotinib = compound: Cc1ccc(-n2nc(C(C)(C)C)cc2NC(=O)Nc2ccc(OCCN3CCOCC3)c3ccccc23)cc1 [Doramapimod] + C[C@@H](Oc1cc(-c2cnn(C3CCNCC3)c2)cnc1N)c1c(Cl)ccc(F)c1Cl [Crizotinib] (partner 1 µM)
# Summary of the method: as §1
cell line,measurement,setting,value
UMC-11,relative viability,IPA-3 + Linsitinib; first compound 0.2 µM,1.28
same,relative viability,IPA-3 + Linsitinib; first compound 0.6325 µM,0.923
same,relative viability,IPA-3 + Linsitinib; first compound 2 µM,1.07
same,relative viability,IPA-3 + Linsitinib; first compound 6.325 µM,1.04
same,relative viability,IPA-3 + Linsitinib; first compound 20 µM,1.24
same,relative viability,Doramapimod + Navitoclax; first compound 0.02 µM,0.304
same,relative viability,Doramapimod + Navitoclax; first compound 0.06325 µM,0.275
same,relative viability,Doramapimod + Navitoclax; first compound 0.2 µM,0.323
same,relative viability,Doramapimod + Navitoclax; first compound 0.6325 µM,0.344
same,relative viability,Doramapimod + Navitoclax; first compound 2 µM,0.271
same,relative viability,Doramapimod + OSI-027; first compound 0.02 µM,0.49
same,relative viability,Doramapimod + OSI-027; first compound 0.06325 µM,0.385
same,relative viability,Doramapimod + OSI-027; first compound 0.2 µM,0.472
same,relative viability,Doramapimod + OSI-027; first compound 0.6325 µM,0.438
same,relative viability,Doramapimod + OSI-027; first compound 2 µM,0.444
same,relative viability,Doramapimod + Crizotinib; first compound 0.02 µM,0.58
same,relative viability,Doramapimod + Crizotinib; first compound 0.06325 µM,0.623
same,relative viability,Doramapimod + Crizotinib; first compound 0.2 µM,0.608
same,relative viability,Doramapimod + Crizotinib; first compound 0.6325 µM,0.609
same,relative viability,Doramapimod + Crizotinib; first compound 2 µM,0.567
